Experiments:
ALOMY [1] = assay: Pre-emergence action against ALOMY; type: in vivo, Alopecurus myosuroides; conditions: dosage 320 g/ha, pre-emergence, scored visually after 3 weeks vs untreated controls, 100% = plants have died, 0% = like control plants
Outline: (§1)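 Seeds sown in sandy loam in wood-fiber pots and covered with soil. Greenhouse growth; visual damage scored after 3 weeks versus untreated controls (100% = dead, 0% = like control).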

AVEFA [2] = assay: Pre-emergence action against AVEFA; type: in vivo, Avena fatua; conditions: dosage 320 g/ha, scored visually after 3 weeks vs untreated controls
Outline: as §1

CYPES [3] = assay: Pre-emergence action against CYPES; type: in vivo, Cyperus esculentus; conditions: pre-emergence, dosage 320 g/ha, scored visually after 3 weeks vs untreated controls
Outline: as §1

ECHCG [4] = assay: Pre-emergence action against ECHCG; type: in vivo, Echinochloa crus-galli; conditions: pre-emergence, dosage 320 g/ha, scored visually after 3 weeks vs untreated controls
Outline: as §1

LOLMU [5] = assay: Pre-emergence action against LOLMU; type: in vivo, Lolium multiflorum; conditions: dosage 320 g/ha, scored visually after 3 weeks vs untreated controls
Outline: as §1

SETVI [6] = assay: Pre-emergence action against SETVI; type: in vivo, Setaria viridis; conditions: pre-emergence, dosage 320 g/ha, scored visually after 3 weeks vs untreated controls
Outline: as §1

ABUTH [7] = assay: Pre-emergence action against ABUTH; type: in vivo, Abutilon theophrasti; conditions: pre-emergence, dosage 320 g/ha, scored visually after 3 weeks vs untreated controls
Outline: as §1

AMARE [8] = assay: Pre-emergence action against AMARE; type: in vivo, Amaranthus retroflexus; conditions: pre-emergence, dosage 320 g/ha, scored visually after 3 weeks vs untreated controls
Outline: as §1

MATIN [9] = assay: Pre-emergence action against MATIN; type: in vivo, Matricaria inodora; conditions: Dosage 320 g/ha, pre-emergence
Outline: as §1

STEME [10] = assay: Pre-emergence action against STEME; type: in vivo, Stellaria media; conditions: Dosage 320 g/ha, pre-emergence
Outline: as §1

VIOTR [11] = assay: Pre-emergence action against VIOTR; type: in vivo, Viola tricolor; conditions: Dosage 320 g/ha, pre-emergence
Outline: as §1

VERPE [12] = assay: Pre-emergence action against VERPE; type: in vivo, Veronica persica; conditions: Dosage 320 g/ha, pre-emergence
Outline: as §1

ALOMY [13] = assay: Post-emergence action against ALOMY; type: in vivo, Alopecurus myosuroides; conditions: Dosage 80 g/ha, post-emergence
Outline: (§2)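 Weeds grown in sandy loam in greenhouse, treated at one-leaf stage (2–3 weeks after sowing) with WP or EC formulations sprayed as aqueous suspension/emulsion at 600 to […] water with 0.2% wetting agent. Visual rating after about 3 weeks versus untreated controls, as % herbicidal action (100% = plants dead, 0% = like control).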

AVEFA [14] = assay: Post-emergence action against AVEFA; type: in vivo, Avena fatua; conditions: post-emergence, dosage 80 g/ha, visual assessment about 3 weeks after treatment vs untreated controls
Outline: as §2

CYPES [15] = assay: Post-emergence action against CYPES; type: in vivo, Cyperus esculentus; conditions: post-emergence, dosage 80 g/ha, visual assessment about 3 weeks after treatment vs untreated controls
Outline: as §2

ECHCG [16] = assay: Post-emergence action against ECHCG; type: in vivo, Echinochloa crus-galli; conditions: post-emergence, dosage 80 g/ha, visual assessment about 3 weeks after treatment vs untreated controls
Outline: as §2

LOLMU [17] = assay: Post-emergence action against LOLMU; type: in vivo, Lolium multiflorum; conditions: dosage 80 g/ha, visual assessment about 3 weeks after treatment vs untreated controls
Outline: as §2

SETVI [18] = assay: Post-emergence action against SETVI; type: in vivo, Setaria viridis; conditions: post-emergence, dosage 80 g/ha, visual assessment about 3 weeks after treatment vs untreated controls
Outline: as §2

ABUTH [19] = assay: Post-emergence action against ABUTH; type: in vivo, Abutilon theophrasti; conditions: post-emergence, dosage 80 g/ha, visual assessment about 3 weeks after treatment vs untreated controls
Outline: as §2

AMARE [20] = assay: Post-emergence action against AMARE; type: in vivo, Amaranthus retroflexus; conditions: post-emergence, dosage 80 g/ha, visual assessment about 3 weeks after treatment vs untreated controls
Outline: as §2

MATIN [21] = assay: Post-emergence action against MATIN; type: in vivo, Matricaria inodora; conditions: post-emergence, dosage 80 g/ha, visual assessment about 3 weeks after treatment vs untreated controls
Outline: as §2

PHBPU = assay: Post-emergence action against PHBPU; type: in vivo, Pharbitis purpurea; conditions: post-emergence, dosage 80 g/ha
Outline: as §2

POLCO [22] = assay: Post-emergence action against POLCO; type: in vivo, Polygonum convolvulus; conditions: post-emergence, dosage 80 g/ha
Outline: as §2

STEME [23] = assay: Post-emergence action against STEME; type: in vivo, Stellaria media; conditions: post-emergence, dosage 80 g/ha
Outline: as §2

VIOTR [24] = assay: Post-emergence action against VIOTR; type: in vivo, Viola tricolor; conditions: post-emergence, dosage 80 g/ha
Outline: as §2

VERPE [25] = assay: Post-emergence action against VERPE; type: in vivo, Veronica persica; conditions: dosage 80 g/ha
Outline: as §2

POLCO [26] = assay: Pre-emergence action against POLCO; type: in vivo, Polygonum convolvulus; conditions: Fallopia convolvulus, 504 h; Dosage 320 g/ha, pre-emergence
Outline: as §1

CCn1nnnc1NC(=O)c1ccc(S(C)(=O)=O)c(C(=O)C2CC2)c1Cl [2-129]
Pre-emergence action against ALOMY (herbicidal activity in percent) (ALOMY [1]): 90% | Pre-emergence action against AVEFA (herbicidal activity) (AVEFA [2]): 100% | Pre-emergence action against CYPES (herbicidal activity) (CYPES [3]): 100% | Pre-emergence action against ECHCG (herbicidal activity) (ECHCG [4]): 100% | Pre-emergence action against LOLMU (herbicidal activity) (LOLMU [5]): 90% | SETVI (Table B8, pre-emergence herbicidal activity) (SETVI [6]): 100% | Pre-emergence action against ABUTH (herbicidal activity) (ABUTH [7]): 100% | Pre-emergence action against AMARE (herbicidal activity) (AMARE [8]): 100% | Pre-emergence action against MATIN (MATIN [9]): 100% | Pre-emergence action against STEME (STEME [10]): 100% | Pre-emergence action against VIOTR (VIOTR [11]): 100% | Pre-emergence action against VERPE (VERPE [12]): 100% | Post-emergence action against ALOMY (ALOMY [13]): 100% | Post-emergence action against AVEFA (herbicidal action in percent) (AVEFA [14]): 100% | Post-emergence action against CYPES (herbicidal action in percent) (CYPES [15]): 80% | Post-emergence action against ECHCG (herbicidal action in percent) (ECHCG [16]): 90% | Post-emergence action against LOLMU (herbicidal action in percent) (LOLMU [17]): 90% | Post-emergence action against SETVI (herbicidal action in percent) (SETVI [18]): 100% | Post-emergence action against ABUTH (herbicidal action in percent) (ABUTH [19]): 80% | Post-emergence action against AMARE (herbicidal action in percent) (AMARE [20]): 100% | Post-emergence action against MATIN (herbicidal action in percent) (MATIN [21]): 100% | Post-emergence action against PHBPU (PHBPU): 100 | Post-emergence action against POLCO (POLCO [22]): 100 | Post-emergence action against STEME (STEME [23]): 100 | Post-emergence action against VIOTR (VIOTR [24]): 100 | Post-emergence action against VERPE (VERPE [25]): 100

CSc1ccc(C(=O)Nc2nnnn2C)c(Cl)c1C(C)=O [1-121]
pest or weed control at 320 g/ha (ALOMY [1]; Alopecurus myosuroides, 504 h, read-out: Pre-emergence action against ALOMY (herbicidal activity in percent)): 90% | pest or weed control at 320 g/ha (AVEFA [2]; Avena fatua, 504 h, read-out: Pre-emergence action against AVEFA (herbicidal activity)): 90% | pest or weed control at 320 g/ha (CYPES [3]; Cyperus esculentus, 504 h, read-out: Pre-emergence action against CYPES (herbicidal activity)): 90% | pest or weed control at 320 g/ha (ECHCG [4]; Echinochloa crus-galli, 504 h, read-out: Pre-emergence action against ECHCG (herbicidal activity)): 100% | pest or weed control at 320 g/ha (LOLMU [5]; Lolium multiflorum, 504 h, read-out: Pre-emergence action against LOLMU (herbicidal activity)): 90% | pest or weed control at 320 g/ha (SETVI [6]; Setaria viridis, 504 h, read-out: SETVI (Table B8, pre-emergence herbicidal activity)): 100% | pest or weed control at 320 g/ha (ABUTH [7]; Abutilon theophrasti, 504 h, read-out: Pre-emergence action against ABUTH (herbicidal activity)): 90% | pest or weed control at 320 g/ha (AMARE [8]; Amaranthus retroflexus, 504 h, read-out: Pre-emergence action against AMARE (herbicidal activity)): 100% | pest or weed control at 320 g/ha (MATIN [9]; Tripleurospermum inodorum, 504 h): 100% | pest or weed control at 320 g/ha (POLCO [26]): 90% | pest or weed control at 320 g/ha (STEME [10]; Stellaria media, 504 h): 90% | pest or weed control at 320 g/ha (VIOTR [11]; Viola tricolor, 504 h): 100% | pest or weed control at 320 g/ha (VERPE [12]; Veronica persica, 504 h): 100% | pest or weed control at 80 g/ha (ALOMY [13]; Alopecurus myosuroides, 504 h): 90% | pest or weed control at 80 g/ha (AVEFA [14]; Avena fatua, 504 h, read-out: Post-emergence action against AVEFA (herbicidal action in percent)): 90% | pest or weed control at 80 g/ha (ECHCG [16]; Echinochloa crus-galli, 504 h, read-out: Post-emergence action against ECHCG (herbicidal action in percent)): 90% | pest or weed control at 80 g/ha (LOLMU [17]; Lolium multiflorum, 504 h, read-out: Post-emergence action against LOLMU (herbicidal action in percent)): 90% | pest or weed control at 80 g/ha (SETVI [18]; Setaria viridis, 504 h, read-out: Post-emergence action against SETVI (herbicidal action in percent)): 90% | pest or weed control at 80 g/ha (ABUTH [19]; Abutilon theophrasti, 504 h, read-out: Post-emergence action against ABUTH (herbicidal action in percent)): 90% | pest or weed control at 80 g/ha (AMARE [20]; Amaranthus retroflexus, 504 h, read-out: Post-emergence action against AMARE (herbicidal action in percent)): 90% | pest or weed control at 80 g/ha (MATIN [21]; Tripleurospermum inodorum, 504 h, read-out: Post-emergence action against MATIN (herbicidal action in percent)): 100% | pest or weed control at 80 g/ha (PHBPU; Ipomoea purpurea, 504 h): 90% | pest or weed control at 80 g/ha (POLCO [22]; Fallopia convolvulus, 504 h): 80% | pest or weed control at 80 g/ha (STEME [23]; Stellaria media, 504 h): 100% | pest or weed control at 80 g/ha (VIOTR [24]; Viola tricolor, 504 h): 90% | pest or weed control at 80 g/ha (VERPE [25]; Veronica persica, 504 h): 100%

— patent US11051515B2, “3-acyl-benzamides and their use as herbicides” (Bayer Aktiengesellschaft, priority 2017, dated 2021)
